Data taken from patent US11851391B2, “Antifungal compounds and methods of forming the same” (University of Kentucky Research Foundation, priority 2018, dated 2023).
“Also recorded” adds a separate entry of the source.

Assays:
hERG channel = hERG channel (Homo sapiens, UniProt Q12809); test: in vitro; conditions: for IC50 at 60 min: human
From the text: The HEK-293 cell line stably expressing the hERG potassium channel (accession number U04270) referred to as hERG-HEK cells were received at passage 11 from Millipore (CYL3006, lot 2, Billerica, MA). [^3H]-Dofetilide (specific activity of 80 Ci/mmol; labeled on the N-methyl group) was obtained from American Radiolabeled Chemicals, St. Louis, MO Other chemicals and solvents were obtained from Sigma-Aldrich (Milwaukee, WI) with exceptions of polyethylenimine (PEI), which was obtained from Fluka/Sigma-Aldrich (St. Louis, MO), and Minimium Essential Medium (MEM) with GlutaMAX™ and phenol red, MEM non-essential amino acids solution (NEAA, 100×), G418 disulfate salt solution, fetal bovine serum (FBS), 0.05% Trypsin-EDTA 1× with phenol red, and Hank's balanced salt solution (HBSS), which were obtained from Life Technologies (Carlsbad, CA).
The hERG-HEK cells were cultured according to the protocol provided by Millipore. Cells were maintained in MEM (with GlutaMAX™ and phenol red) supplemented with 10% FBS, 1% NEAA and 400 μg/mL G418 disulfate salt, and incubated at 37° C. in a humidified atmosphere with 5% CO2. Frozen aliquots of cells were transferred into T-75 cm^2 flasks and allowed to adhere for 4-8 h. The medium was replaced every 2 days. Passages were carried out at least 3 times after thawing at 6-day intervals. Cells were dissociated with trypsin/EDTA and seeded into new 150×25 mm dishes at 2-3×10^6 cells per dish and placed at 30° C., 5% CO2, for 40-48 h prior to membrane preparation. Membrane preparation occurred 6 days after the last passage (passage 20).
Cell membrane preparation was based on previous methods. Cells were rinsed twice with HBSS at 37° C. and collected by scraping the dishes in ˜20 mL of ice-cold 0.32 M sucrose and homogenized on ice with a Teflon pestle using a Maximal Digital homogenizer (Fisher Scientific, Pittsburgh, PA) at ˜280 rpm for 30 sec. Homogenates were centrifuged at 300 g and 800 g for 4 min each at 4° C. Pellets were resuspended in 9 mL of ice-cold Milli-Q H2O and osmolarity restored by addition of 1 mL of 500 mM Tris buffer (pH 7.4) followed by suspension and centrifugation at 20,000 g for 30 min at 4° C. Pellets were homogenized in 2 mL assay buffer (50 mM Tris, 10 mM KCl, and 1 mM MgCl2, 4° C.) and aliquots of cell membrane suspensions were stored at −80° C. and thawed the day of the [^3H]-dofetilide binding assay. Protein content was determined prior to the assay using a Bradford protein assay with bovine albumin as the standard.
[^3H]-Dofetilide binding assays using hERG-HEK293 cell membranes were based on previous methods. Assays determining concentration-response were conducted in duplicate, and three independent assays were performed for each analogue evaluated. Cell membrane suspension (5 μg) was added to duplicate tubes containing assay buffer, 25 μL of a single concentration of N,N-dialkylaminostilbene agent (FIDAS agent) (concentration range of 10 nM-100 μM for each experiment), and 25 μL of [^3H]-dofetilide (5 nM, final concentration) for an assay volume of 250 μL. Binding occurred for 60 min at 25° C. and was terminated by rapid filtration through Whatman GF/B filters, which were pre-soaked in 0.25% PEI overnight, using a Brandel cell/membrane harvester (M-48; Brandel Inc., Gaithersburg, MD). […] Radioactivity was determined by liquid scintillation spectrometry using the Tri-Carb 2100-TR Liquid Scintillation Analyzer (Perkin-Elmer Life and Analytical Sciences).

[1] = test system: various yeast strains and filamentous fungi (strains A-M); test: Antifungal activity over the whole panel (summary of MIC data); assay type: cell-based, Candida and Aspergillus strains; conditions: over the fungal strains tested, based on MIC data of Table 1
Method: The activity of N,N′-diaryl-bishydrazones 7-22 was tested against a panel of seven strains of C. albicans: ATCC 10231(R) (A), ATCC 64124(R) (B), ATCC MYA-2876(S) (C), ATCC 90819(R) (D), ATCC MYA-2310(S) (E), ATCC MYA-1237(R) (F), and ATCC MYA-1003(R) (G). The activity of these bishydrazones 7-22 was also explored against a panel of three non-albicans Candida strains: C. glabrata ATCC 2001 (H), C. krusei ATCC 6258 (I), and C. parapsilosis ATCC 22019 (J). Finally, the activity of these bishydrazones 7-22 was explored against three Aspergillus strains: A. flavus ATCC MYA-3631 (K), A. nidulans ATCC 38163 (L), and A. terreus ATCC MYA-3633 (M).
The MIC values of compounds 7a-24c against yeast cells (strains A-J) were determined in 96-well plates as described in the CLSI document M27-A3 with minor modifications. A single colony of freshly prepared yeast cells was used to inoculate 5 mL of yeast extract peptone dextrose (YPD) broth prior to incubation overnight with shaking at 200 rpm at 35° C. From the actively growing yeast culture, 100 μL were then transferred to 900 μL of sterile ddH2O and re-adjusted to achieve OD600 of 0.12 (˜1×10^6 CFU/mL). The cell suspension was further diluted to achieve 2-4×10^3 CFU/mL in RPMI 1640 medium. […] The final concentration of DMSO was ensured to be <1.25% in all experiments. The MIC values for compounds 7a-24c and CAS were defined as the minimum drug concentration that yielded complete inhibition (also known as MIC-0).
Similarly, the MIC values of compounds 7a-24c, as well as that of the two control drugs against filamentous fungi (strains K-M) were determined as previously described in CLSI document M38-A2. Spores were harvested from sporulating cultures growing on potato dextrose agar (PDA) by filtration through sterile glass wool and enumerated by using a hemocytometer to obtain the desired inoculum size. […] Spore suspensions were added to the wells to afford a final concentration of 5×10^5 CFU/mL. The plates were incubated at 35° C. for 48 h. The MIC values of compounds 7a-24c and CAS against filamentous fungi were based on the complete inhibition of growth when compared to the growth control (MIC-0). […] Each test was performed in triplicate.

hERG channel, sequence (Q12809 whole entry): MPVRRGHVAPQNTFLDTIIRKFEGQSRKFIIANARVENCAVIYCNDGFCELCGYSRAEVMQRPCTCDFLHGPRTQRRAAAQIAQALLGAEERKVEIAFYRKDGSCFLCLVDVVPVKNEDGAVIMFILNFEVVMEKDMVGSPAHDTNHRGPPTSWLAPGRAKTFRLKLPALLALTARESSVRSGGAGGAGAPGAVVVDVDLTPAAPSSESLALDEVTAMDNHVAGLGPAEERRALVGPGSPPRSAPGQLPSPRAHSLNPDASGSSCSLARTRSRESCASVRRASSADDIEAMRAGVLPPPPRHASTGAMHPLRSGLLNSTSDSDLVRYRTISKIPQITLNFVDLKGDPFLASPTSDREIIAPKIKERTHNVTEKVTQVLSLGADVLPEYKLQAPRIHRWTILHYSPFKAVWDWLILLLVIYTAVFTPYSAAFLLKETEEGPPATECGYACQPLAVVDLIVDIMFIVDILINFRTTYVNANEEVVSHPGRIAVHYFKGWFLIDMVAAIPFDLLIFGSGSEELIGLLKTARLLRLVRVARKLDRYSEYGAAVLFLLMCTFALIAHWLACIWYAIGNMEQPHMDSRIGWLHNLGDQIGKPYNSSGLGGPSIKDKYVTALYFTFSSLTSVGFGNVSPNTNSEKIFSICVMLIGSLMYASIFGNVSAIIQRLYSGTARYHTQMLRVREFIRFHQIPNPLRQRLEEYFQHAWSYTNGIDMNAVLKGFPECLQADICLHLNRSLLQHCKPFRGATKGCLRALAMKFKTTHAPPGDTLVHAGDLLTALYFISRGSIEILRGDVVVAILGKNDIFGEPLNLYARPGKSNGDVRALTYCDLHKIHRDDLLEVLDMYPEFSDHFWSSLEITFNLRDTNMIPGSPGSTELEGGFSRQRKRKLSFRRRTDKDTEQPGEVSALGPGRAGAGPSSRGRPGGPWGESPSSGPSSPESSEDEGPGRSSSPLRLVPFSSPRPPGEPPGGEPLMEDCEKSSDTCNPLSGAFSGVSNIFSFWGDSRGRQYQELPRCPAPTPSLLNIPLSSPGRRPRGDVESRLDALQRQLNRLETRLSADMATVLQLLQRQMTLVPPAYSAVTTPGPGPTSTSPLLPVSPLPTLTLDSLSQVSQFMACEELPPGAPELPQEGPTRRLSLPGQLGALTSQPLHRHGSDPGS

Row | Compound | IC50 at 60 min (hERG channel) [µM] | antifungal activity (in words) [1] | hERG inhibition (in words) (hERG channel)
1 | Fc1ccc(N/N=C/c2ccc(-c3cccc(/C=N/Nc4ccc(F)cc4)c3)cc2)cc1 [Compound 17a] | > 30 | good activity against the majority of the fungal strains tested | –
2 | Fc1ccc(N/N=C/c2ccc(-c3cccc(/C=N/Nc4ccc(F)cc4F)c3)cc2)c(F)c1 [Compound 20a] | – | overall antifungal activity against all the strains tested; also recorded: good activity against the majority of the fungal strains tested | –
3 | COc1ccc(N/N=C/c2ccc(-c3ccc(/C=N/Nc4ccc(OC)cc4)cc3)cc2)cc1 [Compound 15b] | > 30 | good activity against the majority of the fungal strains tested | –
4 | COc1ccc(N/N=C/c2ccc(-c3cccc(/C=N/Nc4ccc(OC)cc4)c3)cc2)cc1 [Compound 15a] | > 30 | – | –
5 | Fc1cccc(N/N=C/c2ccc(-c3cccc(/C=N/Nc4cccc(F)c4)c3)cc2)c1 [Compound 12a] | – | good activity | –
6 | C/C(=N\Nc1ccc(F)cc1)c1ccc(-c2ccc(/C(C)=N/Nc3ccc(F)cc3)cc2)cc1 [Compound 17c, 4,4′-bis((E)-1-(2-(4-fluorophenyl)hydrazono)ethyl)-1,1′-biphenyl] | > 30 | – | no hERG inhibition
